In US8822503B2, “2-pyridone compounds” (Taisho Pharmaceutical Co., Ltd, priority 2009, dated 2014):

These molecules were tested against T1, human liver GK (Homo sapiens, UniProt P35557) (assay: GK activation test). Settings: test compound concentration needed to activate 50% of maximum activation ability; 4 mM 14C-labeled glucose, 2 mM ATP, room temperature, 20 minutes.
T1 construct: GST (glutathione S-transferase) (N); made in house; host or cells: E. coli
T1 sequence (P35557 1-466 isoform P35557-2): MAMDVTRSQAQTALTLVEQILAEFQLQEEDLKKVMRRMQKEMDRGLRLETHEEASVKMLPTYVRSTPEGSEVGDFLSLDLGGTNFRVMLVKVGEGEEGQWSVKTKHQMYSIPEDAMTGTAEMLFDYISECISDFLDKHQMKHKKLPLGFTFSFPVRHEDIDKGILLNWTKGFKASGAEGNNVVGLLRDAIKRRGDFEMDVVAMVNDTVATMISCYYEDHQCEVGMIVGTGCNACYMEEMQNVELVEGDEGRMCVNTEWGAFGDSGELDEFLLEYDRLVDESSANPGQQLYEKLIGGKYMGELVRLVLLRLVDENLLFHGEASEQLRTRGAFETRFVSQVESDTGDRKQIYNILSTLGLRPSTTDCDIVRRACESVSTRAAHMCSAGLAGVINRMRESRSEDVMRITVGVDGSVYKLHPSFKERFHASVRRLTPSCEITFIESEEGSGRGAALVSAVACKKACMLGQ
Format: biochemical
Method in brief: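 GST-tagged human liver GK from E. coli (0.24 μg/well) with 4 mM 14C-glucose, 2 mM ATP in Hepes-KOH pH 7.1, KCl, MgCl2, DTT, 1% DMSO, 20 min room temperature. Labeled glucose 6-phosphate captured on anion resin, eluted and counted. EC50 = concentration giving half of maximal activation.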

SMILES | EC50 [nM]
CS(=O)(=O)c1ccc(/C(=C\[C@H]2CCC(=O)N2)c2ccc(C3CC3)c(=O)[nH]2)cn1 [Example 4-142, 3-Cyclopropyl-6-{(E)-1-[6-(methylsulfonyl)pyridin-3-yl]-2-[(2R)-5-oxopyrrolidin-2-yl]ethenyl}pyridin-2(1H)-one] | 500 to 3000
O=C1CC[C@H](/C=C(\c2ccncc2)c2ccc(C3CC3)c(=O)[nH]2)N1 [Example 4-144, 3-Cyclopropyl-6-[(E)-2-[(2R)-5-oxopyrrolidin-2-yl]-1-(pyridin-4-yl)ethenyl]pyridin-2(1H)-one] | 3000 to 10000
CC(C)c1ccc(/C(=C\[C@H]2CCC(=O)N2C)c2ccc(Cl)c(=O)[nH]2)cc1 [Example 4-147, 3-Chloro-6-{(E)-2-[(2R)-1-methyl-5-oxopyrrolidin-2-yl]-1-[4-(propan-2-yl)phenyl]ethenyl}pyridin-2(1H)-one] | 10 to 500
COc1cc(C(C)(C)C)ccc1/C(=C\[C@H]1CCC(=O)N1)c1ccc(Cl)c(=O)[nH]1 [Example 4-148, 6-{(E)-1-(4-tert-Butyl-2-methoxyphenyl)-2-[(2R)-5-oxopyrrolidin-2-yl]ethenyl}-3-chloropyridin-2(1H)-one] | 500 to 3000
O=C1CC[C@H](/C=C(\c2ccc3ccccc3c2)c2ccc(Cl)c(=O)[nH]2)N1 [Example 4-149, 3-Chloro-6-{(E)-1-(naphthalen-2-yl)-2-[(2R)-5-oxopyrrolidin-2-yl]ethenyl}pyridin-2(1H)-one] | 500 to 3000
O=C1CC[C@H](/C=C(/c2ccc(Cl)c(=O)[nH]2)c2cccc3ccccc23)N1 [Example 4-150, 3-Chloro-6-{(E)-1-(naphthalen-1-yl)-2-[(2R)-5-oxopyrrolidin-2-yl]ethenyl}pyridin-2(1H)-one] | 3000 to 10000
O=C1CC[C@H](/C=C(\c2ccc(-c3ccccc3)cc2)c2ccc(Cl)c(=O)[nH]2)N1 [Example 4-151, 6-{(E)-1-(Biphenyl-4-yl)-2-[(2R)-5-oxopyrrolidin-2-yl]ethenyl}-3-chloropyridin-2(1H)-one] | 500 to 3000
O=C1CC[C@H](/C=C(\c2ccc(Oc3ccccc3)cc2)c2ccc(Cl)c(=O)[nH]2)N1 [Example 4-152, 3-Chloro-6-[(E)-2-[(2R)-5-oxopyrrolidin-2-yl]-1-(4-phenoxyphenyl)ethenyl]pyridin-2(1H)-one] | 10 to 500
NC(=O)c1cccc(/C(=C\[C@H]2CCC(=O)N2)c2ccc(Cl)c(=O)[nH]2)c1 [Example 4-153, 3-{(E)-1-(5-Chloro-6-oxo-1,6-dihydropyridin-2-yl)-2-[(2R)-5-oxopyrrolidin-2-yl]ethenyl}benzamide] | 3000 to 10000
O=C1CC[C@H](/C=C(\c2ccc(OCc3ccccc3)cc2)c2ccc(Cl)c(=O)[nH]2)N1 [Example 4-154, 6-{(E)-1-[4-(Benzyloxy)phenyl]-2-[(2R)-5-oxopyrrolidin-2-yl]ethenyl}-3-chloropyridin-2(1H)-one] | 500 to 3000
CS(=O)(=O)Nc1ccc(/C(=C\[C@H]2CCC(=O)N2)c2ccc(Cl)c(=O)[nH]2)cc1 [Example 4-155, N-(4-{(E)-1-(5-Chloro-6-oxo-1,6-dihydropyridin-2-yl)-2-[(2R)-5-oxopyrrolidin-2-yl]ethenyl}phenyl)methanesulfonamide] | 500 to 3000
CC(C)NC(=O)Nc1ccc(/C(=C\[C@H]2CCC(=O)N2)c2ccc(Cl)c(=O)[nH]2)cc1 [Example 4-156, 1-(4-{(E)-1-(5-Chloro-6-oxo-1,6-dihydropyridin-2-yl)-2-[(2R)-5-oxopyrrolidin-2-yl]ethenyl}phenyl)-3-propan-2-ylurea] | 3000 to 10000
CS(=O)(=O)c1cc(/C(=C\[C@H]2CCC(=O)N2)c2ccc(Cl)c(=O)[nH]2)ccc1C(F)F [Example 4-157, 3-Chloro-6-{(E)-1-[4-(difluoromethyl)-3-(methylsulfonyl)phenyl]-2-[(2R)-5-oxopyrrolidin-2-yl]ethenyl}pyridin-2(1H)-one] | 3000 to 10000
C[S+]([O-])c1ccc(/C(=C\[C@H]2CCC(=O)N2)c2ccc(Cl)c(=O)[nH]2)cc1 (stereo partly drawn) [Example 4-158, 3-Chloro-6-{(E)-1-[4-(methylsulfinyl)phenyl]-2-[(2R)-5-oxopyrrolidin-2-yl]ethenyl}pyridin-2(1H)-one] | 3000 to 10000
CNC(=O)c1ccc(/C(=C\[C@H]2CCC(=O)N2)c2ccc(Cl)c(=O)[nH]2)cc1 [Example 4-159, 4-{(E)-1-(5-Chloro-6-oxo-1,6-dihydropyridin-2-yl)-2-[(2R)-5-oxopyrrolidin-2-yl]ethenyl}-N-methylbenzamide] | 3000 to 10000
NC(=O)c1ccc(/C(=C\[C@H]2CCC(=O)N2)c2ccc(Cl)c(=O)[nH]2)cc1 [Example 4-160, 4-{(E)-1-(5-Chloro-6-oxo-1,6-dihydropyridin-2-yl)-2-[(2R)-5-oxopyrrolidin-2-yl]ethenyl}benzamide] | 3000 to 10000

Continued, values first:

EC50 [nM] | SMILES
10 to 500 | O=C1CC[C@H](/C=C(\c2ccc(C(F)F)c(F)c2)c2ccc(C3CC3)c(=O)[nH]2)N1 [Example 4-131, 3-Cyclopropyl-6-{(E)-1-[4-(difluoromethyl)-3-fluorophenyl]-2-[(2R)-5-oxopyrrolidin-2-yl]ethenyl}pyridin-2(1H)-one]
10 to 500 | O=C1CC[C@H](/C=C(\c2ccc(C(F)F)c(Cl)c2)c2ccc(C3CC3)c(=O)[nH]2)N1 [Example 4-132, 6-{(E)-1-[3-Chloro-4-(difluoromethyl)phenyl]-2-[(2R)-5-oxopyrrolidin-2-yl]ethenyl}-3-cyclopropylpyridin-2(1H)-one]
10 to 500 | Cc1cc(/C(=C\[C@H]2CCC(=O)N2)c2ccc(C3CC3)c(=O)[nH]2)ccc1C(F)F [Example 4-133, 3-Cyclopropyl-6-{(E)-1-[4-(difluoromethyl)-3-methylphenyl]-2-[(2R)-5-oxopyrrolidin-2-yl]ethenyl}pyridin-2(1H)-one]
10 to 500 | COc1ccc(/C(=C\[C@H]2CCC(=O)N2)c2ccc(C3CC3)c(=O)[nH]2)cc1C(F)(F)F [Example 4-134, 3-Cyclopropyl-6-{(E)-1-[4-methoxy-3-(trifluoromethyl)phenyl]-2-[(2R)-5-oxopyrrolidin-2-yl]ethenyl}pyridin-2(1H)-one]
10 to 500 | COc1cc(/C(=C\[C@H]2CCC(=O)N2)c2ccc(C3CC3)c(=O)[nH]2)ccc1C(F)F [Example 4-135, 3-Cyclopropyl-6-{(E)-1-[4-(difluoromethyl)-3-methoxyphenyl]-2-[(2R)-5-oxopyrrolidin-2-yl]ethenyl}pyridin-2(1H)-one]
10 to 500 | O=C1CC[C@H](/C=C(\c2ccc(S(=O)(=O)N3CCCC3)cc2)c2ccc(C3CC3)c(=O)[nH]2)N1 [Example 4-136, 3-Cyclopropyl-6-{(E)-2-[(2R)-5-oxopyrrolidin-2-yl]-1-[4-(pyrrolidin-1-ylsulfonyl)phenyl]ethenyl}pyridin-2(1H)-one]
10 to 500 | NS(=O)(=O)c1ccc(/C(=C\[C@H]2CCC(=O)N2)c2ccc(C3CC3)c(=O)[nH]2)cc1 [Example 4-137, 4-{(E)-1-(5-Cyclopropyl-6-oxo-1,6-dihydropyridin-2-yl)-2-[(2R)-5-oxopyrrolidin-2-yl]ethenyl}benzenesulfonamide]
10 to 500 | O=C1CC[C@H](/C=C(\c2ccc(S(=O)(=O)N3CCOCC3)cc2)c2ccc(C3CC3)c(=O)[nH]2)N1 [Example 4-138, 3-Cyclopropyl-6-{(E)-1-[4-(morpholin-4-ylsulfonyl)phenyl]-2-[(2R)-5-oxopyrrolidin-2-yl]ethenyl}pyridin-2(1H)-one]
10 to 500 | CN(C)S(=O)(=O)Nc1ccc(/C(=C\[C@H]2CCC(=O)N2)c2ccc(C3CC3)c(=O)[nH]2)cc1 [Example 4-139, N′-(4-{(E)-1-(5-Cyclopropyl-6-oxo-1,6-dihydropyridin-2-yl)-2-[(2R)-5-oxopyrrolidin-2-yl]ethenyl}phenyl)-N,N-dimethylsulfuric acid diamide]
10 to 500 | CN(CCO)S(=O)(=O)c1ccc(/C(=C\[C@H]2CCC(=O)N2)c2ccc(C3CC3)c(=O)[nH]2)cc1 [Example 4-140, 4-{(E)-1-(5-Cyclopropyl-6-oxo-1,6-dihydropyridin-2-yl)-2-[(2R)-5-oxopyrrolidin-2-yl]ethenyl}-N-(2-hydroxyethyl)-N-methylbenzenesulfonamide]
10 to 500 | O=C1CC[C@H](/C=C(\c2ccc(SC(F)(F)F)cc2)c2ccc(C3CC3)c(=O)[nH]2)N1 [Example 4-141, 3-Cyclopropyl-6-[(E)-2-[(2R)-5-oxopyrrolidin-2-yl]-1-{4-[(trifluoromethyl)sulfanyl]phenyl}ethenyl]pyridin-2(1H)-one]
10 to 500 | O=C1CC[C@H](/C=C(\c2ccc(OC3CCOCC3)c(Cl)c2)c2ccc(C3CC3)c(=O)[nH]2)N1 [Example 4-143, 6-{(E)-1-[3-Chloro-4-(tetrahydro-2H-pyran-4-yloxy)phenyl]-2-[(2R)-5-oxopyrrolidin-2-yl]ethenyl}-3-cyclopropylpyridin-2(1H)-one]
10 to 500 | O=C1CC[C@H](/C=C(\c2ccc(O)c(Cl)c2)c2ccc(C3CC3)c(=O)[nH]2)N1 [Example 4-145, 6-{(E)-1-(3-Chloro-4-hydroxyphenyl)-2-[(2R)-5-oxopyrrolidin-2-yl]ethenyl}-3-cyclopropylpyridin-2(1H)-one]
10 to 500 | CN1C(=O)CC[C@@H]1/C=C(\c1ccc(C(C)(C)C)cc1)c1ccc(Cl)c(=O)[nH]1 [Example 4-146, 6-{(E)-1-(4-tert-Butylphenyl)-2-[(2R)-1-methyl-5-oxopyrrolidin-2-yl]ethenyl}-3-chloropyridin-2(1H)-one]
